Measured values taken from patent US6825230B2, “Spiro and dispiro 1,2,4-trixolane antimalarials” (Medicines for Malaria Venture MMV, priority 2002, dated 2004).
In brackets after ≈: the same amount, converted by molar mass. Where two headings read alike, the source gives them in different places.

Experiments:
[1] = tested on: chloroquine-resistant K1 strain of P. falciparum; test: In vitro antimalarial semiautomated microdilution assay ([3H]-hypoxanthine incorporation), K1 strain; type: cell-based, Plasmodium falciparum; details: for IC50: Plasmodium falciparum
Protocol: (§1) Various OZ compounds were tested by the semiautomated microdilution assay against intraerythrocytic forms of Plasmodium falciparum derived from asynchronous stock cultures.
(§2) Fifty percent inhibitory concentration (IC50) were estimated by Logit regression analysis.

[2] = tested on: chloroquine-sensitive NF54 strain of P. falciparum; test: In vitro antimalarial semiautomated microdilution assay ([3H]-hypoxanthine incorporation), NF54 strain; type: cell-based, Plasmodium falciparum; details: for IC50: Plasmodium falciparum
Protocol: as §1, §2

[3] = tested on: ANKA strain of P. berghei; test: Single dose STI in vivo screen in infected mice; parameters: species or system Plasmodium berghei; details: for Survival (days) 10 mg/kg po: single 10 mg/kg po in 3% ethanol and 7% Tween 80; for Survival (days) 10 mg/kg po / Survival (days) 10 mg/kg SSV po / Survival (days) 10 mg/kg sc: untreated 6-7 days; for Activity (%) 10 mg/kg po: single 10 mg/kg po in 3% ethanol and 7% Tween 80 on day 1 post-infection; for Survival (days) 10 mg/kg SSV po: single 10 mg/kg po in SSV; for Activity (%) 10 mg/kg SSV po: single 10 mg/kg po in standard suspending vehicle (SSV) on day 1 post-infection; for Survival (days) 10 mg/kg sc: single 10 mg/kg sc in 3% ethanol and 7% Tween 80; for Activity (%) 10 mg/kg sc: single 10 mg/kg sc in 3% ethanol and 7% Tween 80 on day 1 post-infection
Protocol: In the single dose STI in vivo screen, Moro SPF or NMRI mice infected with the ANKA strain of P. berghei (groups of three mice) were treated on day one post-infection with trioxolanes dissolved or suspended in 3% ethanol and 7% Tween 80. […] SSV consists of 0.5% w/v CMC, 0.5% v/v benzyl alcohol, 0.4% v/v Tween 80, and 0.9% w/v sodium chloride in water. Antimalarial activity was measured by percent reduction in parasitemia on day three post-infection and survival times compared to an untreated control group. Survival to day 30 post-infection is considered to be a cure. […] Other factors influencing antimalarial activity include the stability of carbon radicals formed by β-scission subsequent to the initial electron transfer to the peroxide bond and the influence of steric effects remote from the peroxide bond on the interactions between carbon radicals and potential drug targets.
Moro NMRI male mice (Fu Albino specific pathogen free) weighing 18±2 g were infected intravenously (i.v.) with 2×10^7 P. berghei ANKA strain-infected erythrocytes from donor mice on day 0 of the experiment. From donor mice with circa 30% parasitemia, heparinized blood was taken and diluted in physiological saline to 10^8 parasitized erythrocytes per ml. An aliquot (0.2 ml) of this suspension was injected i.v. into experimental and control groups of mice. […] Throughout the experiments, mice were kept in groups of three or five animals in Makrolon type II cages in an air-conditioned animal room at 22 to 23° C.
They were administered per os (p.o.) in a total volume of 0.01 ml per gram of mouse. The activity of the compound was determined by a variety of methods outlined in subsequent sections. Survival time was also recorded, and survival to day 30 post-infection was considered to be a cure.

[4] = K1, 72 h, read-out: IC50 (ng/ml) K1, chloroquine-resistant K1 strain, 72 h incubation
[5] = NF54, 72 h, read-out: IC50 (ng/ml) NF54, chloroquine-sensitive NF54 strain, 72 h incubation
[6] = percent reduction in parasitemia on day 3
[7] = chloroquine-resistant K1 strain, 72 h incubation, read-out: IC50 (ng/ml) K1
[8] = chloroquine-sensitive NF54 strain, 72 h incubation, read-out: IC50 (ng/ml) NF54
[9] = percent reduction in parasitemia on day 3, hydrochloride, 10 mg/kg

SMILES	IC50 [1, 4] [ng/mL]	IC50 [2, 5] [ng/mL]	Survival (days) 10 mg/kg po [3] [days]	Activity (%) 10 mg/kg po [3, 6] [%]	Survival (days) 10 mg/kg SSV po [3] [days]	Activity (%) 10 mg/kg SSV po [3, 6] [%]	Survival (days) 10 mg/kg sc [3] [days]	Activity (%) 10 mg/kg sc [3, 6] [%]	IC50 [1, 7] [ng/mL]	IC50 [2, 8] [ng/mL]	IC50 (ng/ml) K1 ([1]; chloroquine-resistant K1 strain, 72 h incubation, hydrochloride) [ng/mL]	IC50 (ng/ml) NF54 ([2]; chloroquine-sensitive NF54 strain, 72 h incubation, hydrochloride) [ng/mL]	Survival (days) 10 mg/kg po ([3]; hydrochloride, 10 mg/kg) [days]	Activity (%) 10 mg/kg po [3, 9] [%]	Survival (days) 10 mg/kg SSV po ([3]; hydrochloride, 10 mg/kg) [days]	Activity (%) 10 mg/kg SSV po [3, 9] [%]	Survival (days) 10 mg/kg sc ([3]; hydrochloride, 10 mg/kg) [days]	Activity (%) 10 mg/kg sc [3, 9] [%]	Survival (days) 3 mg/kg SSV po ([3]; single 3 mg/kg po in SSV) [days]	Activity (%) 3 mg/kg SSV po ([3]; single 3 mg/kg po in SSV, percent reduction in parasitemia on day 3) [%]
O=C(OCCn1ccnc1)C1CCC2(CC1)OOC1(O2)C2CC3CC(C2)CC1C3 (stereo not shown) [OZ182]	4.5 (≈ 11.2 nM)	5.5 (≈ 13.7 nM)	8.0	91	7.3	96	7.7	95												
CCOC(=O)CCC[C@H]1CC[C@]2(CC1)OOC1(O2)C2CC3CC(C2)CC1C3 (stereo partly shown) [OZ260]			6.7	72	7.0	51	7.7	81	5.6 (≈ 14.8 nM)	4.3 (≈ 11.4 nM)										
O=C(OC1CCC2(CC1)OOC1(O2)C2CC3CC(C2)CC1C3)n1ccnc1 (stereo not shown) [OZ147, Adamantane-2-spiro-3′-1′,2′,4′-trioxaspiro[4.5]decane-8′-yl imidazole-1-carboxylate]			8.0	85	8.0	71	19.7	99.89	1.1 (≈ 2.94 nM)	1.8 (≈ 4.81 nM)										
CC1(C)COC(c2ccc([C@H]3CC[C@]4(CC3)OOC3(O4)C4CC5CC(C4)CC3C5)cc2)=N1 (stereo partly shown) [OZ180]											3.7 (≈ 8.46 nM)	2.8 (≈ 6.4 nM)	13.7	99.91	12.7	97	10.3	65		
OC1(c2nccs2)CCC2(CC1)OOC1(O2)C2CC3CC(C2)CC1C3 (stereo not shown) [OZ247]			6.3	57	6.0	27	9.0	99.85	1.8 (≈ 4.95 nM)	2.3 (≈ 6.33 nM)										
CCCCS(=O)(=O)N1CCC2(CC1)OOC1(O2)C2CC3CC(C2)CC1C3 (stereo not shown) [OZ92, Adamantane-2-spiro-3′-8′-(1′-butanesulfonyl)-1′,2′,4′-trioxa-8′-azaspiro[4.5]decane]	1.6 (≈ 4.15 nM)	0.4 (≈ 1.04 nM)	6.7	81	6.3	35	10.0	99.98												
CC(=O)OC[C@H]1CC[C@]2(CC1)OOC1(O2)C2CC3CC(C2)CC1C3 (stereo partly shown) [OZ118]			7.0	99.0	8.0	98	8.3	99.57	1 (≈ 2.97 nM)	0.24 (≈ 0.713 nM)										
Oc1ccc([C@H]2CC[C@]3(CC2)OOC2(O3)C3CC4CC(C3)CC2C4)cc1 (stereo partly shown) [OZ288]					11.0	99.96			1.7 (≈ 4.77 nM)	2.7 (≈ 7.57 nM)									8.0	82
O=C(O)c1ccccc1C(=O)N1CCC2(CC1)OOC1(O2)C2CC3CC(C2)CC1C3 (stereo not shown) [OZ132, Adamantane-2-spiro-3′-8′-(2′-carboxybenzoyl)-1′,2′,4′-trioxa-8′-azaspiro[4.5]decane]	9.8 (≈ 23.7 nM)	> 10	6.3	38	5.7	0	6.3	40												
